Here are results for 19 compounds from ChEMBL document CHEMBL4428037 (J Med Chem, 2016).

The test system of one experiment is HepG2. Nature of the experiment: Growth inhibition of human HepG2 cells incubated for 72 hrs by MTT assay. It is filed as functional, cell-based. As to conditions: HepG2, 72 h.
Another experiment concerns PC-3. The experiment in a line: Growth inhibition of human PC3 cells incubated for 72 hrs by MTT assay. Format: functional, cell-based. As to conditions: PC-3, 72 h.
In experiment [1] the test system is A549. The experiment in a line: Growth inhibition of human A549 cells incubated for 48 hrs by MTT assay. It is filed as functional, cell-based. The settings on record: A549, 48 h.
The subject of another experiment is NCI-H460. Nature of the experiment: Growth inhibition of human NCI-H460 cells incubated for 48 hrs by MTT assay. The settings on record: NCI-H460, 48 h. It is filed as functional, cell-based.
For experiment [2], the target named is T1, Tubulin (Sus scrofa) (UniProt P02554+P02550). Nature of the experiment: Displacement of [3H]colchicine from biotinylated porcine tubulin at 5 uM incubated for 2 hrs by competition scintillation proximity. It is filed as protein assay.
For a further experiment, the system named is MCF7. The experiment in a line: cells. As to conditions: Homo sapiens, MCF7, 72 h.
Another experiment has as its system HeLa. The experiment in a line: Growth inhibition of human HeLa cells incubated for 72 hrs by MTT assay. Format: functional, cell-based.
In experiment [3] the target is T2, Tubulin alpha (Homo sapiens) (UniProt P0DPH7+P68366+Q71U36+P68363+Q9BQE3+Q6PEY2+A6NHL2+Q9NY65). Nature of the experiment: Inhibition of alpha tubulin polymerization in human A549 cells assessed as induction of microtubule network dis-organization at 40 nM by Immunofluorescent staining based fluorescence microscopy. It is filed as cell-based.
The target of experiment [4] is T2, Tubulin alpha (Homo sapiens). The experiment in a line: Inhibition of alpha tubulin polymerization in human A549 cells assessed as induction of cell border shrinkage of microtubules at 40 nM by Immunofluorescent staining based fluorescence microscopy.
Experiment [5] has as its system A549. The experiment in a line: Induction of cell cycle arrest in human A549 cells assessed as accumulation at G2/M phase at 40 nM incubated for 24 hrs by propidium iodide staining based FACS flow cytometry. Format: functional.
In experiment [6] the test system is A549. The experiment in a line: Induction of apoptosis in human A549 cells assessed as induction of cytoplasmic membrane blebbing at 40 nM incubated for 24 hrs microscopy. Format: functional, cell-based.
Experiment [7] relates to A549. Nature of the experiment: Induction of apoptosis in human A549 cells assessed as induction of cell shrinkage at 40 nM incubated for 24 hrs microscopy. Format: functional, cell-based.
Experiment [8] relates to A549. The experiment in a line: Induction of apoptosis in human A549 cells assessed as induction of nucleus fragmentation at 40 nM incubated for 24 hrs microscopy. It is filed as functional, cell-based.
The test system of experiment [9] is A549. The experiment in a line: Induction of apoptosis in human A549 cells assessed as induction of chromatin condensation at 40 nM incubated for 24 hrs microscopy. It is filed as functional, cell-based.
In experiment [10] the test system is A549. Nature of the experiment: Induction of apoptosis in human A549 cells assessed as live cells level at 40 nM incubated for 24 hrs by Annexin V-FITC/PI staining based FACS flow cytometry (reference value: 96.83%). Format: functional.
Experiment [11] deals with A549. The experiment in a line: Induction of apoptosis in human A549 cells assessed as early apoptotic cells level at 40 nM incubated for 24 hrs by Annexin V-FITC/PI staining based FACS flow cytometry (reference value: 0.65%). Format: functional.
The test system of experiment [12] is A549. The experiment in a line: Induction of apoptosis in human A549 cells assessed as late apoptotic cells level at 40 nM incubated for 24 hrs by Annexin V-FITC/PI staining based FACS flow cytometry (reference value: 2.15%). Format: functional.
Experiment [13] relates to A549. The experiment in a line: Induction of apoptosis in human A549 cells assessed as necrotic cells level at 40 nM incubated for 24 hrs by Annexin V-FITC/PI staining based FACS flow cytometry (reference value: 0.37%). It is filed as functional.
The target of experiment [14] is T1, Tubulin (Sus scrofa). The experiment in a line: (§1) Inhibition of porcine brain tubulin polymerization incubated for 60 mins by fluorescence-based assay.
The next experiment has as its target Tubulin (Sus scrofa, UniProt P02554+P02550). The experiment is described as §1.
For experiment [15], the target named is T1, Tubulin (Sus scrofa). The experiment in a line: Displacement of [3H]colchicine from biotinylated porcine tubulin at 1 uM incubated for 2 hrs by competition scintillation proximity. Format: protein assay.

pIC50: −log10 of the molar value. Activity calls are given as the source filed them. The rule behind the calls is not given here.

As to `COc1ccc(/C=C\c2cc(OC)c(OC)c(OC)c2)cc1O` [COMBRETASTATIN A4], the negative logarithm of the IC50 (pIC50) was 8.68 in the experiment with HepG2; 8.47 in the experiment with PC-3; 7.31 in the experiment on A549 [1]; 7.45 in the experiment on NCI-H460; 7.90 in the experiment with MCF7. In addition, the inhibition at Tubulin (Sus scrofa) [2] is 92%.
Take `CCOc1cccc(Nc2nn(C)c3c2Cc2cc(OCC)c(OCC(=O)NCC4CC4)cc2-3)c1`: the pIC50 in the experiment with HepG2 is 5.77; with HeLa, 5.49; in the experiment with PC-3 it was 5.34; in the experiment on MCF7, below 4.30.
The matching figures for `CCOc1cccc(Nc2nn(C)c3c2Cc2cc(OCC)c(OCC(=O)NCCC#N)cc2-3)c1`: 5.62, 5.84, 5.07 and 5.34.
On to `COc1cc2c(c(OC)c1OC)-c1ccc(OC)c(=O)cc1[C@@H](NC(C)=O)CC2` [COLCHICINE], for which the negative-log IC50 (pIC50) with HepG2 was 7.72; in the experiment on HeLa it was 8.12; with A549 [1], 7.23; in the experiment with NCI-H460, 7.31; in the experiment with MCF7, 7.33. Further, the inhibition entry in experiment [3] and in [4] was “Active” each time. For the same compound, the Activity in the experiment on A549 [5] is 37%; in the experiment with A549 [10], 84.59%; in the experiment with A549 [11] it was 8.38%; in the experiment on A549 [12], 5.89%; in the experiment on A549 [13] it was 1.14%. For the same compound, the outcome with A549 [6], in the experiment with A549 [7], with A549 [8] and in the experiment with A549 [9] was Active.
For the compound `C#CCNC(=O)COc1cc2c(cc1OCC)Cc1c(Nc3cccc(OCC)c3)nn(C)c1-2`, the pIC50 is 6.23 with HepG2, 6.30 in the experiment with HeLa, 5.75 in the experiment with PC-3 and 5.68 in the experiment on MCF7.
The matching figures for `CCOc1cccc(Nc2nn(C)c3c2Cc2cc(OCC)c(OCC(=O)NCCN(C)C)cc2-3)c1`: 6.47, 6.43, 6.34 and 5.52.
On to `CC(=O)O[C@H]1C(=O)[C@@]2(C)[C@H]([C@H](OC(=O)c3ccccc3)[C@]3(O)C[C@H](OC(=O)[C@H](O)[C@@H](NC(=O)c4ccccc4)c4ccccc4)C(C)=C1C3(C)C)[C@]1(OC(C)=O)CO[C@@H]1C[C@@H]2O` [PACLITAXEL], for which the pIC50 in the experiment on HeLa was 7.74; in the experiment with PC-3, 7.68.
Turning to `CCOc1cccc(Nc2nn(C)c3c2Cc2cc(OCC)c(OCC(=O)NC)cc2-3)c1`, the negative logarithm of the IC50 (pIC50) was 6.85 in the experiment on HepG2, 7.05 in the experiment with HeLa, 6.19 in the experiment with PC-3 and 6.05 with MCF7.
The matching figures for `CCOc1cccc(Nc2nn(C)c3c2Cc2cc(OCC)c(OCC(=O)NCCO)cc2-3)c1`: 5.74, 6.38, 5.43 and 6.18.
On the same counts, the results for `CCOc1cccc(Nc2nn(C)c3c2Cc2cc(OCC)c(OCC(=O)NCCN)cc2-3)c1` are 5.85, 6.06, 5.82 and 5.73.
Take `CCOc1cccc(Nc2nn(C)c3c2Cc2cc(OCC)c(OCC(=O)NO)cc2-3)c1`: the pIC50 is 7.79 in the experiment on HepG2, 7.88 in the experiment with HeLa, 7.63 in the experiment on PC-3 and 7.47 with MCF7. Further, the results for the inhibition entry at Tubulin (Sus scrofa) [14], on Tubulin (Sus scrofa) [15] and on Tubulin (Sus scrofa) [2] were “Dose-dependent effect”, 31% and 63%, respectively. This compound came in with an IC50 against Tubulin of 5.33 µM.
As to `CCOc1cccc(Nc2nn(C)c3c2Cc2cc(OCC)c(OCC(=O)NC4CC4)cc2-3)c1`, the negative logarithm of the IC50 (pIC50) with HepG2 was 6.19; in the experiment on HeLa, 6.14; with PC-3 it was 5.85; with MCF7 it was 5.51.
Take `C=CCNC(=O)COc1cc2c(cc1OCC)Cc1c(Nc3cccc(OCC)c3)nn(C)c1-2`: the pIC50 with HepG2 is 6.07; in the experiment on HeLa, 6.16; in the experiment on PC-3, 5.71; in the experiment with MCF7, 6.12.
On the same counts, the results for `CCOc1cccc(Nc2nn(C)c3c2Cc2cc(OCC)c(OCC(=O)NCCOC)cc2-3)c1` are 6.35, 6.31, 6.10 and 5.82.
On to `CCOc1cccc(Nc2nn(C)c3c2Cc2cc(OCC)c(OCC(=O)NN)cc2-3)c1`, for which the negative logarithm of the IC50 (pIC50) with HepG2 is 6.40; with HeLa it was 6.46; with PC-3 it was 6.12; in the experiment on MCF7 it was 6.24.
For `CCOc1cccc(Nc2nn(C)c3c2Cc2cc(OCC)c(OCC(=O)N(C)C)cc2-3)c1`, the pIC50 in the experiment on HepG2 was 6.04; in the experiment with HeLa, 6.14; with PC-3, 5.75; in the experiment with MCF7, 5.21.
Regarding `COc1ccc(S(=O)(=O)Nc2cccnc2Nc2ccc(O)cc2)cc1` [ABT-751], the pIC50 with HepG2 was 6.35; with HeLa, 6.45; with PC-3 it was 6.34; with MCF7 it was 5.42. The compound also displayed a half-inhibitory concentration (IC50) at Tubulin of 2.79 µM. Also, the inhibition came out at 39% at Tubulin (Sus scrofa) [15] and 68% on Tubulin (Sus scrofa) [2].
For `CCOc1cccc(Nc2nn(C)c3c2Cc2cc(OCC)c(OCC(=O)NOC)cc2-3)c1`, the pIC50 was 6.07 in the experiment with HepG2, 6.33 in the experiment on HeLa, 5.54 in the experiment on PC-3 and 5.78 with MCF7.
On the same counts, the results for `CCNC(=O)COc1cc2c(cc1OCC)Cc1c(Nc3cccc(OCC)c3)nn(C)c1-2` are 5.88, 6.21, 5.43 and 5.83.
